From patent publication US20230322724A1, “HETEROCYCLIC COMPOUNDS AS CBP/EP300 BROMODOMAIN INHIBITORS” (AURIGENE ONCOLOGY LIMITED, priority 2020, published 2023)
Like-named read-outs stand apart in the source and are kept apart here.

Assays:
[1] = molecular target: T1, recombinant BRD4 FL bromodomain (Homo sapiens, UniProt O60885); assay: BRD4 FL TR-FRET displacement assay; type: binding; conditions: for inhibition at 10 µM: read-out: % Inhibition (10 μM); for IC50: dose-response, read-out: IC50 (group A, B, C)
T1 construct: fused on or other part: 6xHis tag, inferred from detection with Mab ANTI 6HIS-XL665
Protocol: The potency of compounds to inhibit BRD4 FL enzyme was tested in a TR-FRET displacement assay using recombinant BRD4 FL bromodomain obtained In-house. The assay buffer was 50 mM HEPES (pH 7.5), 50 mM NaCl, 500 μM CHAPS. 10 nM of BRD4 FL & 300 nM of Biotinylated Acetyl histone H4 (Lys 5, 8, 12, 16) (Millipore, USA) was incubated at room temperature for 30 minutes, the reaction was initiated by adding the pre-incubated enzyme ligand mixture to the test compounds. After 30 min incubation, the reaction was stopped by the addition of stop mix containing 1 nM of Europium Streptavidin cryptate (Cisbio, USA) and 5 nM of Mab ANTI 6HIS-XL665 (Cisbio, USA) dilutes in assay buffer containing 2.4M Potassium Fluoride. Fluorescence emission of the samples at 665 and 615 nm were measured at an excitation of 340 nm and their ratio was plotted against the compound concentrations to generate dose-response curve. The percent inhibition of the test compounds is calculated using the ratio of enzyme activity controls.
Selected compounds of the present invention were screened in the above-mentioned assay procedures and IC50 values were determined by fitting the dose-response data to sigmoidal curve fitting equation using Graph pad prism software V7.

[2] = molecular target: T2, recombinant CREBBP bromodomain (Homo sapiens, UniProt Q92793); assay: CBP TR-FRET displacement assay; type: binding; conditions: dose-response, read-out: IC50 (group A, B, C)
T2 construct: recombinant CREBBP bromodomain obtained from BPS Bioscience, USA; purchased BPS Bioscience, USA
T2 sequence (Q92793 1085-1192 limits assumed): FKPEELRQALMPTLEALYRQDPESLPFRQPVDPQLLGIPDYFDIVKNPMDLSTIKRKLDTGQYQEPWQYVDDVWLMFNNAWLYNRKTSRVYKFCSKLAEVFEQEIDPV
Method in brief: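 CREBBP bromodomain (50 nM) preincubated 30 min at room temperature with 500 nM biotinylated ligand in HEPES pH 7.5 buffer with TCEP, then 60 min with compound. Eu-anti-His/APC-streptavidin TR-FRET 665/615 nm ratio read; IC50 from sigmoidal dose-response fit.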

Row | Structure (SMILES) | inhibition at 10 µM ([1]; BRD4 FL, compound at 10 μM) [%] | IC50 [2] [nM] | IC50 ([1]; BRD4 FL) [nM] | inhibition at 10 µM [1] [%]
1 | Cc1cc2c(N3CCN(C)c4cc(-c5cnn(C)c5)ncc43)cc(N3CC(C)OC(C)C3)cc2n(C)c1=O (stereo not shown) [Example 132] | – | < 50 | 2010 to 5000 | –
2 | Cc1cc2c(N3CCN(C)c4cc(-c5cnn(C)c5)ncc43)cc(N3C[C@@H](C)O[C@@H](C)C3)cc2n(C)c1=O [Example 133] | – | 51 to 100 | 2010 to 5000 | –
3 | Cc1cc2c(N3CCN(C)c4cc(-c5cnn(C(C)C)c5)ncc43)cc(N3CCOCC3)cc2n(C)c1=O [Example 136] | – | < 50 | 2010 to 5000 | –
4 | Cc1cc2c(N3CCN(C)c4cc(-c5cnn(C)c5)ncc43)cc(N3CCOC(C)C3)cc2n(C)c1=O (stereo not shown) [Example 147] | 66 | 51 to 100 | – | –
5 | Cc1cc2c(N3CCN(C)c4cc(-c5cnn(C)c5)ncc43)cc(N3CCS(=O)(=O)CC3)cc2n(C)c1=O [Example 148] | 55 | > 10 | – | –
6 | Cc1cc2c(N3CCN(C)c4cc(-c5cnn(C)c5)ncc43)cc(N3CCC4(COC4)C3)cc2n(C)c1=O [Example 150] | – | < 50 | 2010 to 5000 | –
7 | Cc1cc2c(N3CCN(C)c4cc(-c5cnn(C)c5)ncc43)cc(C3CCCCC3)cc2n(C)c1=O [Example 152] | 48 | 51 to 100 | – | –
8 | CC(=O)N1CCC(c2cc(N3CCN(C)c4cc(-c5cnn(C)c5)ncc43)c3cc(C)c(=O)n(C)c3c2)CC1 [Example 153] | 45 | < 50 | – | –
9 | Cc1cc2c(N3CCN(C)c4cc(-c5cnn(C)c5)ncc43)cc(C3CCC(F)(F)CC3)cc2n(C)c1=O [Example 154] | – | 51 to 100 | 2010 to 5000 | –
10 | Cc1cc2c(N3CCN(C)c4cc(-c5cnn(C)c5)ncc43)cc(OC(C)C)cc2n(C)c1=O [Example 156, 7-Isopropoxy-1,3-dimethyl-5-(1-methyl-7-(1-methyl-1H-pyrazol-4-yl)-2,3-dihydropyrido[3,4-b]pyrazin-4(1H)-yl)quinolin-2(1H)-one] | – | 51 to 100 | – | 47
11 | Cc1cc2c(N3CCNc4cc(-c5cnn(C)c5)ncc43)cc(N3CCOCC3)cc2n(C)c1=O [Example 161, 1,3-Dimethyl-5-(7-(1-methyl-1H-pyrazol-4-yl)-2,3-dihydropyrido[3,4-b]pyrazin-4(1H)-yl)-7-morpholinoquinolin-2(1H)-one] | 16 | > 10 | – | –
12 | CC(=O)N1CCN(c2cc(N3CCOCC3)cc3c2cc(C)c(=O)n3C)c2cnc(-c3cnn(C)c3)cc21 [Example 162, 5-(1-Acetyl-7-(1-methyl-1H-pyrazol-4-yl)-2,3-dihydropyrido[3,4-b]pyrazin-4(1H)-yl)-1,3-dimethyl-7-morpholinoquinolin-2(1H)-one] | – | < 50 | 2010 to 5000 | –
13 | Cc1cc2c(N3CCN(C(F)F)c4cc(-c5cnn(C)c5)ncc43)cc(N3CCOCC3)cc2n(C)c1=O [Example 163, 5-(1-(Difluoromethyl)-7-(1-methyl-1H-pyrazol-4-yl)-2,3-dihydropyrido[3,4-b]pyrazin-4(1H)-yl)-1,3-dimethyl-7-morpholinoquinolin-2(1H)-one] | – | > 10 | – | 16
14 | Cc1cc2c(N3CCN(CC(=O)O)c4cc(-c5cnn(C)c5)ncc43)cc(N3CCOCC3)cc2n(C)c1=O [Example 164, 2-(4-(1,3-Dimethyl-7-morpholino-2-oxo-1,2-dihydroquinolin-5-yl)-7-(1-methyl-1H-pyrazol-4-yl)-3,4-dihydropyrido[3,4-b]pyrazin-1(2H)-yl)acetic acid] | 38 | 51 to 100 | – | –
15 | CC1Cc2c(cc(N3CC[C@@H](O)C3)cc2N2CCCc3cc(-c4cnn(C)c4)c(C(F)F)cc32)N(C)C1=O (stereo partly drawn) [Example 193, 7-(Difluoromethyl)-7′-((R)-3-hydroxypyrrolidin-1-yl)-1′,3′-dimethyl-6-(1-methyl-1H-pyrazol-4-yl)-3,3′,4,4′-tetrahydro-2H-[1,5′-biquinolin]-2′(1′H)-one] | – | > 10 | 2010 to 5000 | –
16 | CNC(=O)C1CCN(c2cc3c(cc(C)c(=O)n3C)c(N3CCN(C)c4cc(-c5cnn(C)c5)ncc43)n2)C1 (stereo not shown) [Example 205] | 43 | 51 to 100 | – | –
17 | Cc1cc2c(N3CCCc4cc(-c5cnn(C)c5)c(C(F)F)cc43)nc(N3CC4CCC(C3)O4)cc2n(C)c1=O [Example 217] | 46 | < 50 | – | –

Further lines, with some results ahead:

Row | inhibition at 10 µM ([1]; BRD4 FL, compound at 10 μM) [%] | IC50 [2] [nM] | IC50 ([1]; BRD4 FL) [nM] | Structure (SMILES) | inhibition at 10 µM [1] [%]
18 | 15 | 51 to 100 | – | COc1cc(N2CCN(C)c3ccc(S(=O)(=O)NC(=O)C(F)(F)F)cc32)c2cc(C)c(=O)n(C)c2c1 [Example 107] | –
19 | 44 | < 50 | – | CC(=O)NS(=O)(=O)c1cc2c(cc1-c1cnn(C)c1)N(C)CCN2c1cccc2c1cc(C)c(=O)n2C [Example 112] | –
20 | 50 | 51 to 100 | – | COc1cc(N2CCN(C)c3cc(-c4cnn(C)c4)ncc32)c2cc(C)c(=O)n(C)c2c1 [Example 116, 7-Methoxy-1,3-dimethyl-5-(1-methyl-7-(1-methyl-1H-pyrazol-4-yl)-2,3-dihydropyrido[3,4-b]pyrazin-4(1H)-yl)quinolin-2(1H)-one] | –
21 | 32 | < 50 | – | COc1cc(N2CCN(C)c3cc(-c4cnn(C)c4)nc(C)c32)c2cc(C)c(=O)n(C)c2c1 [Example 127] | –
22 | – | > 10 | 2010 to 5000 | Cc1cc2c(N3CCN(C)c4cc(-c5cnn(C)c5)ncc43)cc(OC(F)F)cc2n(C)c1=O [Example 129] | –
23 | 48 | 51 to 100 | – | Cc1cc2c(N3CCN(C)c4cc(-c5cnn(C)c5)ncc43)cc(OCC(F)F)cc2n(C)c1=O [Example 130] | –
24 | 52 | > 10 | – | Cc1cc2c(N3CCN(C)c4cc(-c5cnn(C)c5)ncc43)cccc2n(C)c1=O [Example 131] | –
25 | – | 51 to 100 | 2010 to 5000 | COc1ccc(CN2CCN(c3cc(N4CCOCC4)cc4c3cc(C)c(=O)n4C)c3cnc(-c4cnn(C)c4)cc32)cc1 [Example 135] | –
26 | 49 | 51 to 100 | – | Cc1cc2c(N3CCN(C)c4cc(-c5cnn(C)c5)ncc43)cc(C(C)C)cc2n(C)c1=O [Example 151, 7-Isopropyl-1,3-dimethyl-5-(1-methyl-7-(1-methyl-1H-pyrazol-4-yl)-2,3-dihydropyrido[3,4-b]pyrazin-4(1H)-yl)quinolin-2(1H)-one] | –
27 | 41 | 51 to 100 | – | Cc1cc2c(N3CCN(C)c4cc(-c5cnn(C)c5)ncc43)cc(OC3CCOC3)cc2n(C)c1=O (stereo not shown) [Example 157] | –
28 | – | 51 to 100 | 2010 to 5000 | Cc1cc2c(N3CCN(C)c4cc(-c5cnn(C)c5)ncc43)cc(OCc3ncco3)cc2n(C)c1=O [Example 159] | –
29 | 51 | < 50 | – | CNC(=O)CN1CCN(c2cc(N3CCOCC3)cc3c2cc(C)c(=O)n3C)c2cnc(-c3cnn(C)c3)cc21 [Example 165, 2-(4-(1,3-Dimethyl-7-morpholino-2-oxo-1,2-dihydroquinolin-5-yl)-7-(1-methyl-1H-pyrazol-4-yl)-3,4-dihydropyrido[3,4-b]pyrazin-1(2H)-yl)-N-methylacetamide] | –
30 | – | 51 to 100 | 2010 to 5000 | COc1cc(N2CCCc3cc(N4CCN(C(C)=O)CC4)ncc32)c2cc(C)c(=O)n(C)c2c1 [Example 166, 5-(6-(4-Acetylpiperazin-1-yl)-3,4-dihydro-1,7-naphthyridin-1(2H)-yl)-7-methoxy-1,3-dimethylquinolin-2(1H)-one] | –
31 | – | < 50 | 2010 to 5000 | COc1cc(N2CCCc3cc(-c4cnn(C)c4)ncc32)c2cc(C)c(=O)n(C)c2c1 [Example 167] | –
32 | – | < 50 | 2010 to 5000 | COc1cc(N2CCOc3cc(-c4cnn(C)c4)ncc32)c2cc(C)c(=O)n(C)c2c1 [Example 170] | –
33 | – | < 50 | 2010 to 5000 | Cc1cc2c(N3CCCc4cc(-c5cnn(C)c5)c(C(F)F)cc43)cc(C3CCOCC3)cc2n(C)c1=O [Example 179] | –
34 | – | < 50 | 2010 to 5000 | CNC(=O)C1CCN(c2cc3c(cc2C#N)N(c2cc(OC)cc4c2cc(C)c(=O)n4C)CCC3)CC1 [Example 181] | –
35 | – | < 50 | 2010 to 5000 | COc1cc(N2CCCc3cc(N4CCN(C(C)=O)CC4)c(C#N)cc32)c2cc(C)c(=O)n(C)c2c1 [Example 182] | –
36 | – | < 50 | 2010 to 5000 | CNC(=O)c1ccc(-c2cc3c(cc2C#N)N(c2cc(OC)cc4c2cc(C)c(=O)n4C)CCC3)cn1 [Example 183] | –
37 | – | < 50 | 2010 to 5000 | CC(=O)N1CCN(c2cc3c(cc(C)c(=O)n3C)c(N3CCCc4cc(-c5cnn(C)c5)c(C(F)F)cc43)n2)CC1 [Example 200, 7-(4-Acetylpiperazin-1-yl)-5-(7-(difluoromethyl)-6-(1-methyl-1H-pyrazol-4-yl)-3,4-dihydroquinolin-1(2H)-yl)-1,3-dimethyl-1,6-naphthyridin-2(1H)-one] | –
38 | – | < 50 | 2010 to 5000 | Cc1cc2c(N3CCCc4cc(-c5cnn(C)c5)c(C(F)F)cc43)nc(N3CCC(O)C3)cc2n(C)c1=O (stereo not shown) [Example 208] | –
